Measured values as given in US20250160350A1, “BIOACTIVE MOLECULES IN YOGURT” (Phytoquest Limited, priority 2022, published 2025).
Where a name gives a salt, the structure may show the parent alone. Read-outs that look alike come from different tables or passages of the source.

What was measured:
[1] = target: T1, human recombinant β-glucocerebrosidase (Cerezyme) (Homo sapiens, UniProt P04062, R534H); test: β-glucocerebrosidase assay (Cerezyme/imiglucerase, PNP β-glucopyranoside, pH 5.9); type: biochemical; conditions: for % inhibition Cerezyme (β-glucocerebrosidase) / inhibition at 5000 µg/mL: Conc 5 mg/ml; for % inhibition glucocerebrosidase (GC) Genzyme: 0.8 mM; for effect on β-glucocerebrosidase activity, in words: in vitro; for inhibition at 10000 µg/mL: Conc 10 mg/ml
T1 construct: purchased Genzyme, Europe
T1 sequence (P04062 40-536 R534H): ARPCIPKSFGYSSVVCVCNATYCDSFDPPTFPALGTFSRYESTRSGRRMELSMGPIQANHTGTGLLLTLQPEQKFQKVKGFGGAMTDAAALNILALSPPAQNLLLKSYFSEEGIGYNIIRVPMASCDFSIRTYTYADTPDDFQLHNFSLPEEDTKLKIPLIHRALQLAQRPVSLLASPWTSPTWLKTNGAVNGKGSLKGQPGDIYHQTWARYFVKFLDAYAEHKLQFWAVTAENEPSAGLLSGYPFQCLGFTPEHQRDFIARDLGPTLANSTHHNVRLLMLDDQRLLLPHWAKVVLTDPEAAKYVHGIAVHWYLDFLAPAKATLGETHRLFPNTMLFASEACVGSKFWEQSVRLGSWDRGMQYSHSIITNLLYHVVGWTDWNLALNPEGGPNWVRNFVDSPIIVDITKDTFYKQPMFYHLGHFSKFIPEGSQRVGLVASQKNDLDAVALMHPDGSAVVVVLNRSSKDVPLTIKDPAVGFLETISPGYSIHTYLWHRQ
Procedure: An exemplary assay is-uses human recombinant imiglucerase (obtained from Genzyme, Europe) and is conducted at 27° C. in 0.1 M citric acid/0.2 M disodium hydrogen phosphate buffer at pH 5.9. The incubation mixture consists of 10 μL of enzyme solution, 10 μL of aqueous solution of test material (e.g., yogurt, yogurt extract or isolated cyclic guanidine compound) at the required concentration and 50 μL of 5 mM para-nitrophenyl (PNP) B glucopyranoside (Sigma-Aldrich) made up in buffer at pH 5.9. The reactions are stopped by addition of 70 μL 0.4 M glycine (pH 10.4) during the exponential phase of the reaction, which is previously determined using uninhibited assays in which water replaces inhibitor. Final absorbances were read at 405 nm using a Versamax microplate reader (Molecular Devices). Assays are carried out in triplicate, and the values given are means of the three replicates per assay. A negative value indicates enzyme activation.
Glycosidase assays. Most enzymes and para-nitrophenyl substrates were purchased from Sigma with the exception of human recombinant β-glucocerebrosidase (Cerezyme) obtained from Genzyme, Europe. Pure iminosugars which inhibit β-glucosidases (DMDP and calystegine B2) were used as controls. Yogurt samples were tested at 1 mg/ml. Enzymes were assayed at 27° C. in 0.1 M citric acid/0.2 M disodium hydrogen phosphate buffers at the optimum pH for the enzyme (pH 5.9 for Cerezyme). The incubation mixture consisted of 10 μL enzyme solution, 10 μL of 1 mg/mL aqueous inhibitor solution and 50 μL of the appropriate 5 mM para-nitrophenyl substrate made up in buffer at the optimum pH for the enzyme. Cerezyme was assayed against para-nitrophenyl (PNP) β-glucopyranoside. […] Final absorbances were read at 405 nm using a Versamax microplate reader (Molecular Devices). Assays were performed in triplicate and the mean percentage inhibitions used. A negative value indicates enzyme activation.
Glycosidase Assays. β-glucocerebrosidase enzyme (Human recombinant imiglucerase, obtained from Genzyme, Europe) were carried at 27° C. in 0.1 M citric acid/0.2 M disodium hydrogen phosphate buffer at pH 5.9. The incubation mixture consisted of 10 μL of enzyme solution, 10 μL of aqueous solution of extract or compound at the required concentration and 50 μL of 5 mM para-nitrophenyl (PNP) β-glucopyranoside (Sigma-Aldrich) made up in buffer at pH 5.9. […] Final absorbances were read at 405 nm using a Versamax microplate reader (Molecular Devices). Assays were carried out in triplicate and the values given are means. Results are shown as % inhibition where a negative value indicates enzyme activation.
β-glucocerebrosidase enzyme (Human recombinant imiglucerase, obtained from Genzyme, Europe) were carried at 27° C. in 0.1 M citric acid/0.2 M disodium hydrogen phosphate buffer at pH 5.9. […] Final absorbances were read at 405 nm using a Versamax microplate reader (Molecular Devices). Assays were carried out in triplicate, and the values given are means of the three replicates per assay. A negative value indicates enzyme activation.

GCase [2] = conditions: PD patients with and without GBA1 mutation; cited from earlier work
GCase [3] = conditions: literature (Ambrosi et al. 2015); cited from earlier work
β-D-glucosidase almond = test: Glycosidase assay, β-D-glucosidase almond; type: biochemical; conditions: negative value = activation
Procedure: (§1) Glycosidase assays. Most enzymes and para-nitrophenyl substrates were purchased from Sigma with the exception of human recombinant β-glucocerebrosidase (Cerezyme) obtained from Genzyme, Europe. Pure iminosugars which inhibit β-glucosidases (DMDP and calystegine B2) were used as controls. Yogurt samples were tested at 1 mg/ml. Enzymes were assayed at 27° C. in 0.1 M citric acid/0.2 M disodium hydrogen phosphate buffers at the optimum pH for the enzyme (pH 5.9 for Cerezyme). The incubation mixture consisted of 10 μL enzyme solution, 10 μL of 1 mg/mL aqueous inhibitor solution and 50 μL of the appropriate 5 mM para-nitrophenyl substrate made up in buffer at the optimum pH for the enzyme. Cerezyme was assayed against para-nitrophenyl (PNP) β-glucopyranoside. The reactions were stopped by addition of 70 μL 0.4 M glycine (pH 10.4) during the exponential phase of the reaction, which had been determined at the beginning using uninhibited assays in which water replaced inhibitor. Final absorbances were read at 405 nm using a Versamax microplate reader (Molecular Devices). Assays were performed in triplicate and the mean percentage inhibitions used. A negative value indicates enzyme activation.

α-D-glucosidase Bacillus = test: Glycosidase assay, α-D-glucosidase Bacillus; type: biochemical; conditions: 0.8 mM; negative value = activation
Procedure: as §1

[4] = tested on: N-acetyl-β-D gluc Bovine kidney; test: Glycosidase assay, N-acetyl-β-D gluc Bovine kidney; type: biochemical; conditions: negative value = activation; for % inhibition N-acetyl-β-D gluc Bovine kidney: 0.8 mM
Procedure: as §1

[5] = tested on: β-D-galactosidase bovine liver; test: Glycosidase assay, β-D-galactosidase bovine liver; type: biochemical; conditions: 0.8 mM; negative value = activation
Procedure: as §1

[6] = target: T2, α-D-galactosidase Green coffee (Coffea arabica, UniProt Q42656); test: Glycosidase assay, α-D-galactosidase Green coffee; type: biochemical; conditions: 0.8 mM; negative value = activation
T2 construct: purchased Sigma
Procedure: as §1

β-D-mannosidase C. fimi = test: Glycosidase assay, β-D-mannosidase C. fimi; type: biochemical; conditions: 0.8 mM; negative value = activation
Procedure: as §1

α-D-glucosidase Yeast = test: Glycosidase assay, α-D-glucosidase Yeast; type: biochemical; conditions: negative value = activation
Procedure: as §1

[7] = tested on: N-acetyl-β-D-gluc Jack bean; test: Glycosidase assay, N-acetyl-β-D-gluc Jack bean; type: biochemical; conditions: 0.8 mM; negative value = activation
Procedure: as §1

[8] = target: T3, α-D-mannosidase Jack bean (Canavalia ensiformis, UniProt C0HJB3); test: Glycosidase assay, α-D-mannosidase Jack bean; type: biochemical; conditions: 0.8 mM; negative value = activation
T3 construct: purchased Sigma
T3 sequence (C0HJB3 1-981): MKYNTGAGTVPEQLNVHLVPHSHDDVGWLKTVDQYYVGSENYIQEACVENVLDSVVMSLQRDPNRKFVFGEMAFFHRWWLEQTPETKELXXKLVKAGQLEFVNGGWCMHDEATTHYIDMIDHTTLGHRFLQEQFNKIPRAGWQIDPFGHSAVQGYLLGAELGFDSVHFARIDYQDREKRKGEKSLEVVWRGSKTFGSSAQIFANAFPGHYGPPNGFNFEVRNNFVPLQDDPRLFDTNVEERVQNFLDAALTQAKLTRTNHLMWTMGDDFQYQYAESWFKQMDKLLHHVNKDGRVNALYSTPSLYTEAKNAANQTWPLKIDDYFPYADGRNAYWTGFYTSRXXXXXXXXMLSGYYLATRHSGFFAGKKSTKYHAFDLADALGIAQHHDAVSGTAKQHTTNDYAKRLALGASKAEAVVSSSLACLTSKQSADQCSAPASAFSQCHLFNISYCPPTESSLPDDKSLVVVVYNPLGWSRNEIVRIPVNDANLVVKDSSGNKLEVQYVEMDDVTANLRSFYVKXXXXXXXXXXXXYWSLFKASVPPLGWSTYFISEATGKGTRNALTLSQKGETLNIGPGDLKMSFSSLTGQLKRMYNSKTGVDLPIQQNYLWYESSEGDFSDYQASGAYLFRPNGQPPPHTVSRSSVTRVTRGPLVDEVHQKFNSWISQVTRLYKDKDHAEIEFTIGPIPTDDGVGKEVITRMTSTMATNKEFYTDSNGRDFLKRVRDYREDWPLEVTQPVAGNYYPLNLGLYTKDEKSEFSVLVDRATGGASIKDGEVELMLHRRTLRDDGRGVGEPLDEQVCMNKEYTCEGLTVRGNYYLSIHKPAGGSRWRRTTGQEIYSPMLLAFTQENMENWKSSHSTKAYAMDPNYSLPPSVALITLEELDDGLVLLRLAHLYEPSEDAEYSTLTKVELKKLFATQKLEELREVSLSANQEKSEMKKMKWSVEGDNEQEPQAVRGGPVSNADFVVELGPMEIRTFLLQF
Procedure: as §1

[9] = tested on: α-D-glucosidase rat intestine; test: Glycosidase assay, α-D-glucosidase rat intestine; type: biochemical; conditions: 0.8 mM; negative value = activation
Procedure: as §1

GCase [10] = conditions: in vitro and in mice, tissue-specific (Sun et al. 2012); cited from earlier work
[11] = pH 5.9, negative value = activation

T2 sequence (Q42656 16-378): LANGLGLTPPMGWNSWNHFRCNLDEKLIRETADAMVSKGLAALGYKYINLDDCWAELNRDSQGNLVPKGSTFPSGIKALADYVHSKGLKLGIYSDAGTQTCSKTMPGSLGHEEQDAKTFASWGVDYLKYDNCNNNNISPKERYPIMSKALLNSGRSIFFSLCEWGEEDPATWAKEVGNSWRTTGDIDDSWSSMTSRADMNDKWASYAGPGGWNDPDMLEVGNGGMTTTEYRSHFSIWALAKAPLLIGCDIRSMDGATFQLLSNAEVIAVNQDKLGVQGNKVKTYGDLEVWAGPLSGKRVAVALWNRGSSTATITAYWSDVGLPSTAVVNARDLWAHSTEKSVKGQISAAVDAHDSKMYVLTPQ

## O=C(O)c1ccc(=O)[nH]c1 [6-OH-nicotinic acid]
[1]; [11]
  % inhibition Cerezyme (β-glucocerebrosidase): −1.4%

## Cn1cc(C(=O)O)ccc1=O [6-OH-trigonelline]
[1]; [11]
  % inhibition Cerezyme (β-glucocerebrosidase): 8.6%

## Nc1c(Br)cc(Br)cc1CN[C@H]1CC[C@H](O)CC1 [Ambroxol hydrochloride]
GCase [2]
  GCase activity in patients: increased the GCase activity
GCase [3]
  GCase activity: enhance GCase activity
  α-syn clearance: increase α-syn clearance

## O[C@@H]1[C@@H](O)[C@H](O)[C@]2(O)CC[C@H]1N2 [Calystegine B2]
β-D-glucosidase almond; 0.8 mM
  % inhibition β-D-glucosidase almond: 96%
α-D-glucosidase Bacillus
  % inhibition α-D-glucosidase Bacillus: −5%
[4]
  % inhibition N-acetyl-β-D gluc Bovine kidney: 0%
[5]
  % inhibition β-D-galactosidase bovine liver: 44%
[1]; [11]
  % inhibition glucocerebrosidase (GC) Genzyme: 100%
[6]
  % inhibition α-D-galactosidase Green coffee: 99%
β-D-mannosidase C. fimi
  % inhibition β-D-mannosidase C. fimi: −5%
α-D-glucosidase Yeast; 0.8 mM
  % inhibition α-D-glucosidase Yeast: 18%
[7]
  % inhibition N-acetyl-β-D-gluc Jack bean: 0%
[8]
  % inhibition α-D-mannosidase Jack bean: 8%
[9]
  % inhibition α-D-glucosidase rat intestine: 22%

## CN1C(=N)NC[C@H]1C(=O)O [Compound 1, (S)-2-imino-3-methylimidazolidine-4-carboxylic acid]
β-D-glucosidase almond; 8 mM
  % inhibition β-D-glucosidase almond: 20%
[4]; 8 mM
  % inhibition N-acetyl-β-D-gluc Bovine kidney: 34%
[1]
  effect on β-glucocerebrosidase activity, in words: strong promotion equalling that of the yogurt purified compound
[1]; listed as (S)-2-imino-3-methylimidazolidine-4-carboxylic acid
  effect on β-glucocerebrosidase activity, in words: effective at promoting the enzyme activity in vitro
α-D-glucosidase Yeast; 8 mM
  % inhibition α-D-glucosidase Yeast: 44%

## OC[C@H]1N[C@H](CO)[C@@H](O)[C@@H]1O [DMDP]
β-D-glucosidase almond; 0.8 mM
  % inhibition β-D-glucosidase almond: 97%
α-D-glucosidase Bacillus
  % inhibition α-D-glucosidase Bacillus: 93%
[4]
  % inhibition N-acetyl-β-D gluc Bovine kidney: −7%
[5]
  % inhibition β-D-galactosidase bovine liver: 99%
[1]; [11]
  % inhibition glucocerebrosidase (GC) Genzyme: 44%
[6]
  % inhibition α-D-galactosidase Green coffee: 7%
β-D-mannosidase C. fimi
  % inhibition β-D-mannosidase C. fimi: 93%
α-D-glucosidase Yeast; 0.8 mM
  % inhibition α-D-glucosidase Yeast: 100%
[7]
  % inhibition N-acetyl-β-D-gluc Jack bean: −7%
[8]
  % inhibition α-D-mannosidase Jack bean: 3%
[9]
  % inhibition α-D-glucosidase rat intestine: 77%

## Nc1ncnc2nc[nH]c12 [adenine]
[1]; [11]
  inhibition at 10000 µg/mL: -22%
[1]
  effect on β-glucocerebrosidase activity, in words: some promotion activity but weaker than that seen with the yogurts

## C[N+](C)(C)CC(=O)O [betaine]
[1]; [11]
  inhibition at 10000 µg/mL: 0.1%

## O=C(O)/C=C/c1ccc(O)c(O)c1 [caffeic acid]
[1]; [11]
  inhibition at 5000 µg/mL: -1.8%

## O=C(/C=C/c1ccc(O)c(O)c1)O[C@@H]1C[C@](O)(C(=O)O)C[C@@H](O)[C@H]1O [chlorogenic acid]
[1]; [11]
  inhibition at 5000 µg/mL: 57.1%
[1]
  effect on β-glucocerebrosidase activity, in words: inhibited the enzyme

## Nc1cc[nH]c(=O)n1 [cytosine]
[1]; [11]
  inhibition at 10000 µg/mL: -1.6%

## OC[C@H]1CNC[C@@H](O)[C@@H]1O [isofagomine]
GCase [10]
  GCase activity: increase GCase activity in vitro and in mice

## NC(=O)c1cccnc1 [nicotinamide]
[1]; [11]
  inhibition at 5000 µg/mL: -11.3%

## O=C(O)c1cccnc1 [nicotinic acid]
[1]; [11]
  inhibition at 5000 µg/mL: -12.7%

## O=c1c(O)c(-c2ccc(O)c(O)c2)oc2cc(O)cc(O)c12 [quercetin]
[1]; [11]
  inhibition at 5000 µg/mL: 39.4%
[1]
  effect on β-glucocerebrosidase activity, in words: inhibited the enzyme

## C[n+]1cccc(C(=O)[O-])c1 [trigonelline]
[1]; Conc 1 mg/ml, pH 5.9, negative value = activation
  inhibition at 1000 µg/mL: 3.1%
[1]; [11]
  inhibition at 5000 µg/mL: -12.6%

## O=c1cc[nH]c(=O)[nH]1 [uracil]
[1]; [11]
  inhibition at 5000 µg/mL: 4.5%
